{"source": "patent US20250134897A1", "about": "“PREPARATION OF IS[…] KETO[…] METHODS OF HYPERPO[…] SIGNAL AMP[…] […] (SABRE)” (The United States of America,as represented by the …, priority 2022, published 2025)", "key": {"[1]": {"test": "13C-1 spin-lattice relaxation time (T1) at 3 T MRI system", "format": "physicochemical", "conditions": "3 T MRsolution MRI system, solutions of DPBS with EDTA"}, "[2]": {"test": "SABRE-SHEATH 13C hyperpolarization, single-scan 13C NMR", "format": "physicochemical", "conditions": "10 mM substrate, 45 mM DMSO, 7.8 mM Ir-IMes catalyst in methanol-d4; 55 s p-H2 bubbling at BT=−0.2 μT; ~50% p-H2; acquired after transfer to 1 T", "excerpt": "Ultra-high-purity hydrogen gas (Airgas) was fed into a Para-Hydrogen (pH2) flow cryostat (Xeus technology LTD) and enriched to about 50% parahydrogen in the presence of a spin-exchange catalyst (Fe2O3) at liquid nitrogen temperature (77 K). The pH2 flow was directed via PTFE tubing to a mass flow controller (MFC, Sierra Instruments SmartTrak 100 series) set at 90 ssc/m and directed to a conventional 5 mm NMR tube (Norell) to allow bubbling through the sample. The entire pH2 line was pressurized to 96 psi.\nAt least once a day, the shield was degaussed using internal coils driven by a Variac. The solenoid has 41 mm diameter (40 mm core, 20 cm long windings with 220 turns AWG20 (0.9 mm) Cu wire and with 220Ω resistor in series. The solenoid coil was driven by commercial 1.5V batteries with a variable-resistance decade box in series to provide finer control of the internal magnetic field inside the shield. Typical values of the field within the shield were between […], with SABRE SHEATH experiments typically between 0.5 μT and 0.8 μT in the sample region. The values were monitored between SABRE experiments using a Lakeshore Cryotronics Gaussmeter (Model No. 475 DSP with HMMA-2512-VR Hall Probe.\nNMR experiments were performed using a 1 T Magritek Spinsolve benchtop NMR spectrometer. […]"}}, "data": [{"smiles": "O=C(O)CCC(=O)C(=O)O", "note": "[2-Oxopentanedioic-5-^12C-1-^13C acid]", "values": [{"measurement": "T1 after flip angle correction (spin-lattice relaxation time)", "setting": "[1]", "result": "63.0 ± 0.835", "unit": "s"}, {"measurement": "apparent T1 (spin-lattice relaxation time)", "setting": "[1]; without flip angle correction", "result": "32.1 ± 0.824", "unit": "s"}]}, {"smiles": "O=C(CC[12C](=O)[O-])[13C](=O)[O-].[Na+].[Na+]", "note": "[sodium [1-^13C] Ketoglutarate, sodium 2-Oxopentanedioate-5-^12C-1-^13C]", "values": [{"measurement": "polarization P(13C)", "setting": "[2]", "result": "~0.24", "unit": "%"}]}]}
